Structures can show the parent of a compound that is named as a salt.
Assays:
Assay in all cases: PI3K enzyme inhibitory activity in the cell free assay (ADP-Glo Kinase Assay)
Assay type in all cases: biochemical
PI3Kβ = target: T1, PI3Kβ (Homo sapiens, UniProt P42338); details: human recombinant PI3Kβ, ATP 100 μM; read-out: PI3K beta inhibition
T1 construct: purchased Millipore Ltd (Billerica, Mass.)

PI3Kδ = target: T2, PI3Kδ (Homo sapiens, UniProt O00329); details: human recombinant PI3Kδ, ATP 80 μM; read-out: PI3K delta inhibition
T2 construct: purchased Millipore Ltd (Billerica, Mass.)
T2 sequence (O00329 1-1044): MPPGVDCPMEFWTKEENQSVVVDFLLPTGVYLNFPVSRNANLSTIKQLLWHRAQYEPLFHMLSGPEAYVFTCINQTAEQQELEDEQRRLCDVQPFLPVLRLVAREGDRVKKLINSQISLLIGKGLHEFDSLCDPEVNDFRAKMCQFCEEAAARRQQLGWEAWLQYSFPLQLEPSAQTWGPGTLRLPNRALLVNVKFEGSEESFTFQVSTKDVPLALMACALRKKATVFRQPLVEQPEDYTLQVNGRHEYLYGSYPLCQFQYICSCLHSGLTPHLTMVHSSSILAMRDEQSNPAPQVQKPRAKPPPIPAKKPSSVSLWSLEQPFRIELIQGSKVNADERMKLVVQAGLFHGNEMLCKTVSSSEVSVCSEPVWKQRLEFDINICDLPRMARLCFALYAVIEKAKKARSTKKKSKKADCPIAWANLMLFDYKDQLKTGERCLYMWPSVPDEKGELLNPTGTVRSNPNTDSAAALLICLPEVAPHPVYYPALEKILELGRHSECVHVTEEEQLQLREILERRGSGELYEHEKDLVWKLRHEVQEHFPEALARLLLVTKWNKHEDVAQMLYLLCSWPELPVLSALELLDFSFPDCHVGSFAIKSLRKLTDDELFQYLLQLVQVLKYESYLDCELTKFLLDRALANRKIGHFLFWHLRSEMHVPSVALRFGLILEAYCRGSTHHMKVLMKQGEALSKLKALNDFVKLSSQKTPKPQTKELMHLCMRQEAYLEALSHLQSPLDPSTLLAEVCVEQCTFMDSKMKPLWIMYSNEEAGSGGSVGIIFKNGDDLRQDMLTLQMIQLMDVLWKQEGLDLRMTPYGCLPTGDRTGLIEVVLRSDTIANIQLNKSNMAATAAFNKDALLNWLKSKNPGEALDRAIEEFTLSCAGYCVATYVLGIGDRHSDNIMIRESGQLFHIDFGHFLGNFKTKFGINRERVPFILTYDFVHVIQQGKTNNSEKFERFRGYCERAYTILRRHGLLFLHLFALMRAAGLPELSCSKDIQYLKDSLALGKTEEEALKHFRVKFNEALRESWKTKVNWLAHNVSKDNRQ

PI3Kγ = target: T3, PI3Kγ (Homo sapiens, UniProt P48736); details: human recombinant PI3Kγ, ATP 30 μM; read-out: PI3K gamma inhibition
T3 construct: purchased Millipore Ltd (Billerica, Mass.)
T3 sequence (P48736 whole entry): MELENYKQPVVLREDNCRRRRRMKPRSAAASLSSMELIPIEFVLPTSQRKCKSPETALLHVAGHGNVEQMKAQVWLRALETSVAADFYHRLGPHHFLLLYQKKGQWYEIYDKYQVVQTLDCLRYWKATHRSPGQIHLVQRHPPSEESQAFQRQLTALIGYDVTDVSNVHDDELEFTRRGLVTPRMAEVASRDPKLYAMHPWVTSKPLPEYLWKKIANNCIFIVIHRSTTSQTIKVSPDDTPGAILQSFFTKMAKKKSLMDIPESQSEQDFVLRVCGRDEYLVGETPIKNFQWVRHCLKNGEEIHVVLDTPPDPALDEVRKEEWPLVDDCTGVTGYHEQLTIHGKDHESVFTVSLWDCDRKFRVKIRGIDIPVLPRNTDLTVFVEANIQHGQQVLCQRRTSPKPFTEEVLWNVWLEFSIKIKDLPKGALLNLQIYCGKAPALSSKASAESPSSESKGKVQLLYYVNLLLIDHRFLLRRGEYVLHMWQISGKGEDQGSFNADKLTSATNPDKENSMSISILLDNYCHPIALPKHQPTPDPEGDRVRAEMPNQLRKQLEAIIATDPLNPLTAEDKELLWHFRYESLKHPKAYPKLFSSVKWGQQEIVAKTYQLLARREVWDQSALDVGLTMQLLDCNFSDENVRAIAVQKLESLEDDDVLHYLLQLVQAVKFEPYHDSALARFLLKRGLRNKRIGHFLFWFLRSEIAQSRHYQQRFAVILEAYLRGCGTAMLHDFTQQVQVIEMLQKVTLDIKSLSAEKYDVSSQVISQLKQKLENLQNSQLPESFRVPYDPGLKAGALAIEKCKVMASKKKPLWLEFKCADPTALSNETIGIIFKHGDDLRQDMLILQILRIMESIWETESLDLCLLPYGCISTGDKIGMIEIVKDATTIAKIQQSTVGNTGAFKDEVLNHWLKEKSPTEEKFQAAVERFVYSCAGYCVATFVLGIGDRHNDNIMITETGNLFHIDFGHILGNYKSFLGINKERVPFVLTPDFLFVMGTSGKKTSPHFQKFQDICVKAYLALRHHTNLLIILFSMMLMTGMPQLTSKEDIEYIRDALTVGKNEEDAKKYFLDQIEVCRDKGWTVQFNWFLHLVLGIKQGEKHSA

T1 sequence (P42338 whole entry): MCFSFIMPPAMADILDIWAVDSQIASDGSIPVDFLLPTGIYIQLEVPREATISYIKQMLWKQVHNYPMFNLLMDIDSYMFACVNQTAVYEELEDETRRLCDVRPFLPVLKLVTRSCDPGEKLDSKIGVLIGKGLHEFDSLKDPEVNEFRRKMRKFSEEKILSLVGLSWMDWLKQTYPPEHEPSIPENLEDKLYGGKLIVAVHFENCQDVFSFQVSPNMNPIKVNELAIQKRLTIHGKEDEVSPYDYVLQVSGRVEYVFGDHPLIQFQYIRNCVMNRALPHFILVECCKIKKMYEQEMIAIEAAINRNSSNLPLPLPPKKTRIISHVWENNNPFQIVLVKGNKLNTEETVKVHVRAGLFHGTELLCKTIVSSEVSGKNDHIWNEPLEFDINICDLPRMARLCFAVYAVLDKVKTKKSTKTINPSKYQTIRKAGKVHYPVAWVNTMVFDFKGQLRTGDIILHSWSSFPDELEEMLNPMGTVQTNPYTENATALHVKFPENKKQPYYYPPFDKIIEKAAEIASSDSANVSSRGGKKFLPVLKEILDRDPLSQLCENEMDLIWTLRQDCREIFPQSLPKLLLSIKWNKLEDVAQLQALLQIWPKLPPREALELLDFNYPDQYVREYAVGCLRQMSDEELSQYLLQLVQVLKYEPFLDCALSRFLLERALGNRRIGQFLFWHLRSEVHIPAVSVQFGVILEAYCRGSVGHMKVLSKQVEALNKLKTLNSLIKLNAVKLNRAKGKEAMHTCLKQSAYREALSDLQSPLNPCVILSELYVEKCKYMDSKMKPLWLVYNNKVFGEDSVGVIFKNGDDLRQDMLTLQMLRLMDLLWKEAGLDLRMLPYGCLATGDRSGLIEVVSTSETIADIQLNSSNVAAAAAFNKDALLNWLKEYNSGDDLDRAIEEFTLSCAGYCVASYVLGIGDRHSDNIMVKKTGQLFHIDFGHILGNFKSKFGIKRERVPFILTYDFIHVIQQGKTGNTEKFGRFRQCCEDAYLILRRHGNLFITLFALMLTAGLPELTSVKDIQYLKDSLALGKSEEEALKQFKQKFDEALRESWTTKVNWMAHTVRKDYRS

Compound	IC50 (PI3Kβ) [µM]	IC50 (PI3Kδ) [µM]	IC50 (PI3Kγ) [µM]
CC(c1oc(=O)c2ccccc2c1-c1cncs1)n1ncc2c(N)ncnc21 (stereo not drawn) [Example 18, 3-(1-(4-Amino-1H-pyrazolo[3,4-d]pyrimidin-1-yl)ethyl)-4-(thiazol-5-yl)-1H-isochromen-1-one]	0.01 to 1	0.01 to 1	> 1
CC(c1oc(=O)c2ccccc2c1-c1cccc(CN2CCCCC2)c1)n1nc(-c2cc(O)cc(F)c2)c2c(N)ncnc21 (stereo not drawn) [Example 143, 3-(1-(4-amino-3-(3-fluoro-5-hydroxyphenyl)-1H-pyrazolo[3,4-d]pyrimidin-1-yl)ethyl)-4-(3-(piperidin-1-ylmethyl)phenyl)-1H-isochromen-1-one, Formate]	0.01 to 1	0.01 to 1	> 1
Nc1ncnc2c1c(-c1ccc(O)c(F)c1)nn2Cc1oc(=O)c2ccccc2c1-c1ccccc1 [Example 39, 3-((4-Amino-3-(3-fluoro-4-hydroxyphenyl)-1H-pyrazolo[3,4-d]pyrimidin-1-yl)methyl)-4-phenyl-1H-isochromen-1-one]	> 1	0.01 to 1	0.01 to 1
CCC(Nc1ncnc2[nH]cnc12)c1oc(=O)c2ccccc2c1-c1ccccc1 (stereo not drawn) [Example 25, 3-(1-(9H-Purin-6-ylamino)propyl)-4-phenyl-1H-isochromen-1-one]	> 1	< 0.01	0.01 to 1
Nc1ncnc2c1ncn2Cc1oc(=O)c2ccccc2c1-c1ccccc1 [Example 1, 3-((6-Amino-9H-1-purin-9-yl)methyl)-4-phenyl-1H-isochromen-1-one]	> 1	0.01 to 1	0.01 to 1
CC(Nc1ncnc(N)c1C#N)c1oc(=O)c2ccccc2c1-c1ccc(CN2CCOCC2)s1 (stereo not drawn) [Example 82, 4-amino-6-((1-(4-(5-(morpholinomethyl)thiophen-2-yl)-1-oxo-1H-isochromen-3-yl)ethyl)amino)pyrimidine-5-carbonitrile hydrochloride]	> 1	< 0.01	0.01 to 1
O=c1oc(CNc2ncnc3[nH]cnc23)c(-c2ccccc2F)c2ccccc12 [Example 30, 3-((9H-Purin-6-ylamino)methyl)-4-(2-fluorophenyl)-1H-isochromen-1-one]	> 1	0.01 to 1	0.01 to 1
CC(c1oc(=O)c2ccccc2c1-c1ccc(CN2CCCC2)s1)n1nc(-c2cc(O)cc(F)c2)c2c(N)ncnc21 (stereo not drawn) [Example 73, 3-(1-(4-amino-3-(3-fluoro-5-hydroxyphenyl)-1H-pyrazolo[3,4-d]pyrimidin-1-yl)ethyl)-4-(5-(pyrrolidin-1-ylmethyl)thiophen-2-yl)-1H-isochromen-1-one hydrochloride]	0.01 to 1	< 0.01	> 1
CC(c1oc(=O)c2ccccc2c1-c1ccc(CN2CCNCC2)cc1)n1nc(-c2cc(O)cc(F)c2)c2c(N)ncnc21 (stereo not drawn) [Example 125, 3-(1-(4-amino-3-(3-fluoro-5-hydroxyphenyl)-1H-pyrazolo[3,4-d]pyrimidin-1-yl)ethyl)-4-(4-(piperazin-1-ylmethyl)phenyl)-1H-isochromen-1-one dihydrochloride]	> 1	0.01 to 1	> 1
Nc1ncnc2c1c(I)nn2Cc1oc(=O)c2ccccc2c1-c1ccccc1 [Int D1, 3-((4-Amino-3-iodo-1H-pyrazolo[3,4-d]pyrimidin-1-yl)methyl)-4-phenyl-1H-isochromen-1-one]	> 1	0.01 to 1	0.01 to 1
CC(c1oc(=O)c2ccccc2c1-c1ccc(CN2CCOCC2)s1)n1nc(-c2cc(O)cc(F)c2)c2c(N)ncnc21 (single isomer, unassigned) [Example 49b, 3-(1-(4-amino-3-(3-fluoro-5-hydroxyphenyl)-1H-pyrazolo[3,4-d]pyrimidin-1-yl)ethyl)-4-(5-(morpholinomethyl)thiophen-2-yl)-1H-isochromen-1-one hydrochloride]	> 1	0.01 to 1	> 1
Nc1ncnc2c1c(-c1ccc3cn[nH]c3c1)nn2Cc1oc(=O)c2ccccc2c1-c1ccccc1 [Example 38, 3-((4-Amino-3-(1H-indazol-6-yl)-1H-pyrazolo[3,4-d]pyrimidin-1-yl)methyl)-4-phenyl-1H-isochromen-1-one]	> 1	0.01 to 1	0.01 to 1
Cc1ncc(O)cc1-c1nn(C(C)c2oc(=O)c3ccccc3c2-c2ccccc2)c2ncnc(N)c12 (stereo not drawn) [Example 160, 3-(1-(4-amino-3-(5-hydroxy-2-methylpyridin-3-yl)-1H-pyrazolo[3,4-d]pyrimidin-1-yl)ethyl)-4-phenyl-1H-isochromen-1-one]	0.01 to 1	< 0.01	0.01 to 1
CC(Nc1ncnc2[nH]cnc12)c1oc(=O)c2ccccc2c1-c1cccc(N(C)C)c1 (stereo not drawn) [Example 34, 3-(1-(9H-Purin-6-ylamino)ethyl)-4-(3-(dimethylamino)phenyl)-1H-isochromen-1-one]	> 1	0.01 to 1	0.01 to 1
Cc1cccc(-c2c(Cn3cnc4c(N)ncnc43)oc(=O)c3ccccc23)c1 [Example 4, 3-((6-Amino-9H-purin-9-yl)methyl)-4-m-tolyl-1H-isochromen-1-one]	> 1	0.01 to 1	> 1
Nc1ncnc2c1c(-c1cc(O)cc(F)c1)nn2Cc1oc(=O)c2ccccc2c1-c1ccccc1 [Example 35, 3-((4-Amino-3-(3-fluoro-5-hydroxyphenyl)-1H-pyrazolo[3,4-d]pyrimidin-1-yl)methyl)-4-phenyl-1H-isochromen-1-one]	> 1	< 0.01	0.01 to 1
Nc1ncnc2c1ncn2Cc1oc(=O)c2ccccc2c1-c1cccc(F)c1 [Example 2, 3-((6-Amino-9H-purin-9-yl)methyl)-4-(3-fluorophenyl)-1H-isochromen-1-one]	> 1	0.01 to 1	> 1
Cc1c(O)cncc1-c1nn(C(C)c2oc(=O)c3ccccc3c2-c2ccccc2)c2ncnc(N)c12 (stereo not drawn) [Example 159, 3-(1-(4-amino-3-(5-hydroxy-4-methylpyridin-3-yl)-1H-pyrazolo[3,4-d]pyrimidin-1-yl)ethyl)-4-phenyl-1H-isochromen-1-one]	> 1	0.01 to 1	0.01 to 1
CC(c1oc(=O)c2ccccc2c1C1=CCN(Cc2ccccc2)CC1)n1nc(-c2cc(O)cc(F)c2)c2c(N)ncnc21 (stereo not drawn) [Example 131, 3-(1-(4-amino-3-(3-fluoro-5-hydroxyphenyl)-1H-pyrazolo[3,4-d]pyrimidin-1-yl)ethyl)-4-(1-benzyl-1,2,3,6-tetrahydropyridin-4-yl)-1H-isochromen-1-one hydrochloride]	> 1	0.01 to 1	> 1
CC(c1oc(=O)c2ccccc2c1-c1ccc(C(=O)O)s1)n1nc(-c2cc(O)cc(F)c2)c2c(N)ncnc21 (stereo not drawn) [Example 78, 5-(3-(1-(4-amino-3-(3-fluoro-5-hydroxyphenyl)-1H-pyrazolo[3,4-d]pyrimidin-1-yl)ethyl)-1-oxo-1H-isochromen-4-yl)thiophene-2-carboxylic acid]	> 1	< 0.01	0.01 to 1
Cc1nn(C(C)c2oc(=O)c3ccccc3c2-c2ccccc2)c2ncnc(N)c12 (stereo not drawn) [Example 105, 3-(1-(4-amino-3-methyl-1H-pyrazolo[3,4-d]pyrimidin-1-yl)ethyl)-4-phenyl-1H-isochromen-1-one]	0.01 to 1	< 0.01	0.01 to 1

Reference: US9321776B2, “Isochromene derivatives as phoshoinositide 3-kinases inhibitors” (CHIESI FARMACEUTICI S.p.A., priority 2013, dated 2016)
